*1 amine or outer side, *2 acyl side, *3 side chain or, on linkers, in order; H or OH if unused. Where a SMILES comes first, the peptide text is derived from it. [ ]: non-standard residue; d: D form. The star is where a group is joined. NH(CH2CH2O)2(CH2)6Cl = ClCCCCCCOCCOCCN*; Suc = O=C(CCC(=O)[*:2])[*:1]; 2Pyrimidinyl = c1cnc(*)nc1; Orn = NCCC[C@H](N)C(=O)O
Test system: HEK cells stably expressing a HaloTag-GFP-mitochondrial localized construct
Test: Chloroalkane penetration/permeability assay (CAPA)
Format: in vitro ADME
Conditions: modified peptide versus its unmodified control (ct-1l, ct-1m)
Method: at room temperature. Peptides were synthesized using standard protocols. Peptides were cleaved from the resin using a cocktail of 95:5, trifluoroacetic acid:water for 2 h. The resin was removed by filtration, and the resulting solution was concentrated via air flow. The residue was washed with cold ether (3 x 10 mL), precipitating a white solid. Ether was removed via vacuum overnight. The white solid was diluted with ACN/H2O mixture. The resulting solution was purified by HPLC.
VI. BD FACSymphony™ Flow Cytometer. Flow cytometry analysis was performed on a BD FACSymphony™ system equipped with decagon (2-10 PMTs) or cascade (2-20 PMTs) detector arrays. […] Signal detection combines PMTs (side scatter/fluorescence) and photodiodes (forward scatter), with longpass dichroic and bandpass filters for wavelength selection. […] The absorbance of the molecule is 533 nm and emission is […]
VII. […] After recovery from selection and reaching near-confluency, the cells were deemed ready for CAPA experiments. […]
Experimental Protocol Design Control Implementation. […] No-molecule control wells receive only dilution buffer during the pulse step, thereby establishing the maximum red fluorescence baseline. […]

Structure (SMILES): CC[C@H](C)[C@H](NC(=O)[C@H](CO)NC(=O)[C@@H](NC(=O)[C@@H]1CCCN1C(=O)[C@H](CCCNc1ncccn1)NC(=O)[C@H](Cc1c[nH]c2ccccc12)NC(=O)CCC(=O)NCCOCCOCCCCCCCl)C(C)C)C(N)=O [ct-2l] ({NH(CH2CH2O)2(CH2)6Cl-Suc}-W[Orn](2Pyrimidinyl)PVSI-NH2)
- increase in membrane permeability following conversion of arginine into the amino pyrimidine derivative: 2 fold

Structure (SMILES): CC(C)[C@H](NC(=O)CCC(=O)NCCOCCOCCCCCCCl)C(=O)NCC(=O)N[C@@H](CCCNc1ncccn1)C(=O)N[C@@H](C)C(=O)N[C@@H](Cc1c[nH]c2ccccc12)C(=O)N[C@@H](CC(N)=O)C(=O)N[C@@H](Cc1ccc(O)cc1)C(=O)N[C@@H](C)C(N)=O [ct-2m] ({NH(CH2CH2O)2(CH2)6Cl-Suc}-VG[Orn](2Pyrimidinyl)AWNYA-NH2)
- increase in membrane permeability following conversion of arginine into the amino pyrimidine derivative: 2 fold

Source: publication PMC12624831, “Expanding Peptide Chemical Space via Acid-Mediated Arginine Modification” (Organic Letters, 2025)
